For the experiment, the target named is T1, rat liver 11β HSD (Rattus norvegicus, UniProt P16232).
T1 construct: for the 11β HSDs isolated from rat liver; from tissue; host or cells: rat liver
As to the kind of experiment: rat liver 11β HSD oxidative activity, corticosterone utilization (Lineweaver-Burk kinetics). The class given is biochemical. To be noted: for inhibition of the enzyme: purified rat liver 11β HSD, 1,2,6,7-3H-corticosterone; for Ki: purified rat liver 11β HSD, oxidative activity, NADP+, 1,2,6,7-3H-corticosterone, with regard to the glucocorticoid substrate, read-out: Kis; for mode of inhibition: with regard to the glucocorticoid substrate (corticosterone), Lineweaver-Burk plot, rat liver 11β HSD oxidative activity. Here is the method: Computational analyses were performed using the latest version of MacSpartan Plus and MSI InsightII. Experimental analysis employed the rat enzyme as described (Monder et al., BBA […] (1991) and references therein). Kinetic data were analyzed in Excel and plotted in CricketGraph.
The structural similarity between GCs like cortisol and the monoterpenes with the conformation of neomenthol (FIG. 1) was confirmed by the computational analysis of their steric and electronic similarities, as summarized in FIGS. 2 and 3. Only neomenthol precisely mimicked the region of GCs around C11 that contains the oxygen atom subjected to the redox reactions mediated by the 11β HSDs. Consequently, only neomenthol should bind to such an enzyme like its physiological substrate, competing with said substrate for the active site of said enzyme. This computation-based prediction was confirmed experimentally, as shown in FIGS. 4 and 5 for the 11β HSDs isolated from rat liver. The purified rat liver 11β HSD, when used in vitro, utilizes NADP+ and oxidizes cortisol and corticosterone in an ordered sequential bireactant mechanism (Monder et al., Biochim. Biophys. Acta 1115:23-29 (1991) and references therein). […] More importantly, the results identified the conformation of neomenthol as a lead for the rational optimization of 11β HSD inhibitors, applicable to both the in vivo oxidizing activity of 11β HSD2 and the in vivo reducing activity of 11β HSD1, as shown in FIG. 6. Using the same computational algorithms that correctly predicted the competitive mode of inhibitory activity for neomenthol, and the lack thereof for isomenthol, molecules were assembled in silico and evaluated for their computed physicochemical characteristics relevant for the desired inhibition of 11β HSD activity. Originating from the lead compounds (FIG. 6), the computational analysis converged on several optimized structures that contained combinations of physicochemical and steric elements prerequisite for 11β HSD inhibition. These structures are identified in FIGS. 7-10. FIG. 7 details for neomenthol the findings obtained with this approach. FIG. 8 details the findings for a representative compound in which, among other modifications, a structure equivalent to the B ring of cortisol has been deleted. FIG. 9 details the findings for a representative compound in which, among other modifications, a ring has been added to the structure equivalent to the D ring of cortisol. FIG. 10 details the findings for a representative compound in which, among other modifications, a structure equivalent to the D ring of cortisol has been deleted. As originally proposed for neomenthol (FIG. 11), these structures are sufficiently isosteric and isoelectronic with cortisol to displace it from its plasma binding proteins, in this way increasing the bioavailable, free cortisol in a living system, e.g. after topical administration to skin only in skin blood vessels.

We go through two molecules from US20040138258A1, “Inhibitors of 11beta-hydroxysteroid dehydrogenase and uses therefor” (priority 2002, published 2004).

T1 sequence (P16232 whole entry): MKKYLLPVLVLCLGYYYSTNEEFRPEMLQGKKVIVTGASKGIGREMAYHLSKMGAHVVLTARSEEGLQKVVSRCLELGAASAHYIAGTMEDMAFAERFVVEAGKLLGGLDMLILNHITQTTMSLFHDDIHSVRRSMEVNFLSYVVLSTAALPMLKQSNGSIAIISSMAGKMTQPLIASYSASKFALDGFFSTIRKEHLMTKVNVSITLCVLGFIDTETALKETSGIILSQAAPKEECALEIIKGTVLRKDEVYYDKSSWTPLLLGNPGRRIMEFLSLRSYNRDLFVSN

Take `CC(C)[C@@H]1CC[C@@H](C)C[C@@H]1O` [neomenthol, (1S, 2S, 5R)-neomenthol]: the “inhibition of the enzyme” value is “inhibited the enzyme”, the Ki turned out to be 35 µM and the mode of inhibition result was “competitive”.
Taken in the same sequence, the figures for `CC(C)[C@H]1CC[C@@H](C)C[C@@H]1O` [isomenthol, (1S, 2R, 5R)-isomenthol] were “inhibited the enzyme”, 71 µM and “non-competitive”.
